For data set [1], the system named is brewer's yeast induced fever in rats. Description: Antipyretic activity in rats (brewer's yeast fever). Format: in vivo, Wistar rats. On the procedure: The experiments were performed in groups of 10 Wistar rats of both sexes weighing 160-200 g. Fever was induced by 20% brewer's yeast suspended in 0.9% saline solution, applied subcutaneously in a volume of 2 ml/rat distributed at various sites of the back. After 18 hours the test compound or the vehicle was administered in a volume of 10 ml/kg p.o. During this period the rats were fasted but received drinking water ad libitum. The rectal temperature of the animals was measured with a Thermotest thermometer 2 days before injection of the fever inducer, then before the application of the test compound and after treatment in every 60th min. Animals with increase in body temperature less than 0.8° C. were excluded. The results were evaluated according to the statistical method of Duncan.

Data set [2] can be described thus: in vivo. Particulars: mouse, po. As to the method: The observation period after treatment lasted for 14 days.
Statistical evaluation was carried out as described by Litchfield-Wilcoxon's method.

In data set [3] the test system is carrageenin-induced oedema in rats. Description: Carrageenin-induced oedema test in rats. Format: in vivo. Particulars: 3 h after carrageenin. As to the method:
Inhibitory activity in carrageenin-induced oedema test was assessed in rats using the technique of Winter at al. (1962). Carageenin (0.1 ml of 1.0% solution) was injected into the plantar surface of the hind paw of rats weighing 130-160 g. Rats were fasted for 12 hours and received drinking water ad libitum. One hour before treatment with the test compound animals were hydrated orally with 30 ml/kg of tap water. The test compounds or the vehicle were administered p.o. in a volume of 10 ml/kg, then two hours later carrageenin was applied. The paw volume was determined in a plethysmometer prior to and 3 hours after administration of the irritant.

Data set [4] in a line: in vivo. Format: in vivo. Particulars: mouse, in vivo, po; mice, LD50/writhing ID50; read-out: TI (therapeutic index). As to the method:
(§1) Between the 5th and 10th minute after the administration of acetic acid total number of the typical writhing reactions was counted, and expressed as percentage of the control. The experiments were performed in groups of at least 12 mice; measurements were done 60 min. after oral application of the test compounds.

Data set [5] has as its system acetic-acid writhing reactions in mice. Description: animal or person. It counts as in vivo. Particulars: Mus musculus, po, 1 h, read-out: Writhing test ID50. On the procedure: as §1
The nature of data set [6]: Chemiluminescence induced by H2O2 in cell free medium.
For data set [7], the system named is adjuvant arthritis in rats. Kind of data set: Adjuvant arthritis in rats. Format: in vivo, Long Evans rats. Particulars: for Paw swelling, % Right: injected right hindpaw, day 10 (primary response); for % inhibition Left: left hindpaw, secondary response; for % inhibition Right: right hindpaw, primary response; for Paw swelling, % Left: uninjected left hindpaw, day 15 (secondary response).

Data set [8] deals with acetic acid writhing reactions in rats. Description: Writhing test in rats (acetic acid). Particulars: Rattus norvegicus, po, 1 h, read-out: Writhing test ID50. On the procedure:
(§2) Five minutes after treatment with acetic acid, total number of characteristic writhing reactions was counted for 10 minutes and expressed as percentage of the control group.

Data set [9] has as its system gastric secretion in rats. Description: Effect on gastric secretion in rats (Shay, pylorus ligation). Particulars: for Gastric juice / Free acid content / Total acid content: per 100 g body weight; for Free acid content / Total acid content: titration with 0.1 N NaOH. It counts as in vivo, Wistar rats. On the procedure:
The experiments were carried out following the surgical method of Shay et al. (1946). Fasted Wistar rats weighing 200-250 g were used. During a 48 hours, starving period rats received drinking water ad libitum. The experimental groups consisted of 4 males and 4 females.
On the day of experiment the pylorus of rats was ligated under ether anaesthesia. […] The control groups were treated simultaneously with identical volumes of vehicle in identical route of administration.
Four hours after operation rats were killed with ether, their stomach was removed after cardia ligature, the stomach contents were separated and after centrifugation the volume of the gastric juice was measured. The free acid and total acid content were assayed by titration with 0.1 N NaOH.
The results were individually transformed for 100 g body weight and statistically evaluated by Wilcoxon's method.

The test system of data set [10] is PHA stimulated granulocytes. Description: Chemiluminescence of PHA stimulated granulocytes. Format: cell-based, human (healthy volunteers). Particulars: Homo sapiens, read-out: IC50, chemiluminescence of PHA stimulated granulocytes. On the procedure: (§3) Heparinized blood (10 IU/ml) was taken from healthy volunteers. The blood diluted with equal volume of dextran, the white blood cells were separated by sedimentation. The granulocytes were separated by Uromio gradient. […] The cell suspension was put in dark box for 15 min. Luminol was dissolved in concentrated NH4 OH and diluted in the following solution:
(§4) 50 ml Tris-Parker medium (containing 1.2 g Tris, pH=7.4)
(§5) 4 ml glucose 40% w/v in water
(§6) The Luminol solution (500 μl) was measured in plastic vials and put in dark (37° C.). The reaction was started by addition of the cells and stimulating agent (Phytohaemaglutinin-PHA 10 μg/ml).
(§7) The vials were continuously and gently shaken and the PHA stimulation was measured in every 2.5 min. for 15 min. in a Beckmann LS-100 spectrometer (coincidence switched off). The percentage of the counts measured was calculated in comparison with the solvent treated control cells. At least 5 concentrations of each compound were investigated in at least 3 parallels.

In data set [11] the test system is gastric mucosa of rats. Description: Measurement of ulcerogenic activity. It counts as in vivo.
Data set [12] can be described thus: Writhing test in rats (acetic acid). Particulars: rat, in vivo, po. On the procedure: as §2
For orientation: Writhing tests count abdominal constrictions after an irritant is injected.

The test system of data set [13] is Wistar rats. Particulars: from Barron et al. 1968, 20160 min; cited from earlier work.
Data set [14] has as its system mononuclear cells. Kind of data set: Chemiluminescence of PHA stimulated mononuclear cells. Format: cell-based, human (healthy volunteers). On the procedure:
as §3, §4, §5, §6, §7

The mark [15] stands for this setting: 200 mg/kg p.o., 1 hour following treatment.
[16] abbreviates: 200 mg/kg p.o., 3 hours following treatment.
Where [17] appears, read: 200 mg/kg p.o., 5 hours following treatment.

SMILES strings stand for the structures. Like-named read-outs stand apart in the source and are kept apart here.

Regarding `CC(=O)Oc1ccccc1C(=O)O` [Acetylsalicylic acid], the entries for the “Decrease in body temperature” value in data set [1] (setting [15]), in data set [1] (setting [16]) and in data set [1] (setting [17]) were 0.7 °C, 1.0 °C and 1.0 °C, respectively. The compound also came in with an LD50 at 336 h in [2] of 1350 mg/kg. Also, in data set [3] (100 mg/kg p.o.), the “% inhibition of carrageenin-induced oedema” value turned out to be 29.5%. Further, the selectivity ratio in data set [4] came out at 5.2. Moreover, in data set [5], the ED50 was 261 mg/kg.

As for `Cc1c(N(C)C)c(=O)n(-c2ccccc2)n1C` [Amidazophen, 1-phenyl-2,3-dimethyl-4-dimethylamino-pyrazolone-5, reference compound], the “Decrease in body temperature” value in [1] (setting [15]) is 2.7 °C; in data set [1] (setting [16]), 2.3 °C; in [1] (setting [17]) it was 1.7 °C.

`COc1ccc(Cc2cnc(N)nc2N)cc1OC` [Compound A, 2,4-diamino-5-(3,4-dimethoxybenzyl)-pyrimidine]: the “Antipyretic activity (in words)” value in data set [1] is listed as “significant antipyretic activity”. Besides, the “Decrease in body temperature” value in [1] (100 mg/kg p.o., 1 hour following treatment) worked out at 1.5 °C; in data set [1] (100 mg/kg p.o., 3 hours following treatment), 2.0 °C; in data set [1] (100 mg/kg p.o., 5 hours following treatment) it was 1.7 °C; in data set [1] (setting [15]), 1.5 °C; in data set [1] (setting [16]) it was 2.4 °C; in [1] (setting [17]) it was 1.6 °C. Further, the “Influence on chemiluminescence induced by H2O2” value in data set [6] is listed as “did not influence”. For the same compound, the “% inhibition of carrageenin-induced oedema” value in [3] (125 mg/kg p.o.) is listed as 42.0%. Further, the “Paw swelling, % Right” value in data set [7] (100 mg/kg p.o. once daily) was found to be 56.9%. Moreover, in [7] (100 mg/kg p.o. once daily), the “% inhibition Left” value is recorded as -47.1%. Moreover, the “% inhibition Right” value in data set [7] (100 mg/kg p.o. once daily) is given as -51.4%. Besides, the “Paw swelling, % Left” value in data set [7] (100 mg/kg p.o. once daily) is reported as 38.5%. In addition, the ED50 is 36 mg/kg in [8] and 141 mg/kg in data set [5]. Further, the Gastric juice came out at 3.01 mL in [9] (250 mg/kg orally), 2.93 mL in [9] (500 mg/kg orally) and 2.23 mL in data set [9] (1000 mg/kg orally). In addition, the results for the Free acid content in data set [9] (250 mg/kg orally), in data set [9] (500 mg/kg orally) and in data set [9] (1000 mg/kg orally) were 2.17 mL, 2.18 mL and 1.24 mL, respectively. Further, the Total acid content stood at 4.33 mL in data set [9] (250 mg/kg orally), 4.40 mL in [9] (500 mg/kg orally) and 3.18 mL in [9] (1000 mg/kg orally). For the same compound, the inhibition at 250 mg/kg in [9] (Rattus norvegicus, 250 mg/kg, + = increase, - = decrease, read-out: % inhibition compared to the control, Gastric juice) stood at 17.3%; in data set [9] (Rattus norvegicus, 250 mg/kg, read-out: % inhibition compared to the control, Total acid content), 11.8%. For the same compound, in data set [9] (Rattus norvegicus, 250 mg/kg, read-out: % inhibition compared to the control, Free acid content), the Percent change from control (+ = increase, - = decrease) at 250 mg/kg is -23%. Besides, the inhibition at 500 mg/kg in data set [9] (Rattus norvegicus, 500 mg/kg, + = increase, - = decrease, read-out: % inhibition compared to the control, Gastric juice) came to 15.2%; in data set [9] (Rattus norvegicus, 500 mg/kg, read-out: % inhibition compared to the control, Total acid content), 16.5%. Further, the Percent change from control (+ = increase, - = decrease) at 500 mg/kg in [9] (Rattus norvegicus, 500 mg/kg, read-out: % inhibition compared to the control, Free acid content) is -19.1%. Besides, the inhibition at 1000 mg/kg in [9] (Rattus norvegicus, 1000 mg/kg, + = increase, - = decrease, read-out: % inhibition compared to the control, Gastric juice) is -14%; in data set [9] (Rattus norvegicus, 1000 mg/kg, read-out: % inhibition compared to the control, Total acid content), -20.1%. Further, in [9] (Rattus norvegicus, 1000 mg/kg, p < 0.05, read-out: % inhibition compared to the control, Free acid content), the Percent change from control (+ = increase, - = decrease) at 1000 mg/kg is -58.1%. Further, the “Effect on gastric secretion (in words)” value in data set [9] (doses 250-1000 mg/kg) is on record as “did not change the gastric secretion except in very high doses”. For the same compound, the IC50 in data set [10] stood at 0.1 µM.

`COc1ccc2c(c1)c(CC(=O)O)c(C)n2C(=O)c1ccc(Cl)cc1` [Indomethacin, 1-(p-chloro-benzoyl)-5-methoxy-2-methyl-1H-indole-3-acetic acid]: the “% inhibition of carrageenin-induced oedema” value in data set [3] (1 mg/kg p.o.) is on record as 40.3%. In addition, the Ulcus-index in [11] (5 mg/kg orally 6 and 16 h before decapitation) was found to be 0.2; in [11] (10 mg/kg orally 6 and 16 h before decapitation), 1.2; in [11] (20 mg/kg orally 6 and 16 h before decapitation), 3.0. Also, the “Effect on ulcus-index (in words)” value in data set [11] (oral, over the doses of Table 4) is “increases does dependently the ulcus-index”. In addition, in [12], the selectivity ratio was found to be 5.4. The ED50 in [8] was 4.7 mg/kg. In data set [13], the median lethal dose (LD50) was 25.5 mg/kg. In addition, the IC50 in data set [10] was more than 100 µM.

As for `CC(=O)Nc1ccc(O)cc1` [Paracetamol, 4-hydroxy-acetanilide], the ED50 in [5] came to 180 mg/kg.

In the case of `CCCCC1C(=O)N(c2ccccc2)N(c2ccccc2)C1=O` [Phenylbutazone, 3,5-dioxo-1,2-diphenyl-4-(n-butyl)-pyrazolidine], in data set [3] (25 mg/kg p.o.), the “% inhibition of carrageenin-induced oedema” value is given as 56.6%. In addition, in data set [7] (30 mg/kg p.o. once daily), the “Paw swelling, % Right” value turned out to be 94.6%; the “% inhibition Left” value is recorded as -49.6%; the “% inhibition Right” value is -19.2%; the “Paw swelling, % Left” value worked out at 36.7%. Further, in [8], the ED50 is 19.7 mg/kg. Further, the “Activity on chemiluminescence in mononuclear cells” value in data set [14] is “inactive”. In data set [5], the ED50 was in the range of 100 to 200 mg/kg. The 50% inhibitory concentration (IC50) in [10] (PHA 10 μg/ml, Luminol 32 μM) was 100 µM.

Turning to `CN1C(C(=O)Nc2ccccn2)=C(O)c2ccccc2S1(=O)=O` [Piroxicam, 4-hydroxy-2-methyl-N-2-pyridyl-2H-1,2-benzothiazine-3-carboxamide-1,1-dioxide], the “Activity on chemiluminescence in mononuclear cells” value in [14] was “inactive”. Besides, the IC50 in [10] (PHA 10 μg/ml, Luminol 32 μM) was 100 µM.

As a reminder, the LD50 is the dose at which mortality reaches 50%. By inhibition is commonly meant the change of the read-out against control, counted positive when it falls. A word on the IC50: it is the concentration that gives 50% inhibition.

Values taken from US4873249A, “Pharmaceutical composition” (EGIS Gyogyszergyar, priority 1986, dated 1989).
